Literature values in patent publication US20050159377A1, “Methods of modulating activity of prokaryotic ribosomes” (SmithKline Beecham Corporation, priority 2000, published 2005).

Test system: 50S ribosomal subunit

## O=C(N[C@H](CO)[C@H](O)c1ccc([N+](=O)[O-])cc1)C(Cl)Cl [chloramphenicol]
  competition with pleuromutilin for binding: weakly compete
